Laboratory results as given in US10981932B2, “Macrocyclic indole derivatives” (Bayer Aktiengesellschaft, priority 2016, dated 2021).

What was measured:
A2780 = assay: Anti-proliferative effect (CellTiter-Glo, 72 h), A2780; assay type: cell-based; conditions: Homo sapiens, A2780, 72 h, A2780 cells, median, read-out: IC50 antiproliferation assay A2780 [M] (median)
In short: (§1)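 Anti-proliferative activity is derived from ATP-based luminescence (CellTiter-Glo) in cells exposed to compound for 72 h at 37 °C, set against a time zero plate read at seeding.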

MCL-1 = MCL-1 (Homo sapiens, UniProt Q07820); assay: Protein-protein interaction assay MCL-1/Noxa BH3 peptide (MCL-1 assay), TR-FRET; assay type: binding; conditions: MBP-MCL-1 / Noxa BH3-derived peptide, median
Chain of MCL-1 (Q07820 whole entry): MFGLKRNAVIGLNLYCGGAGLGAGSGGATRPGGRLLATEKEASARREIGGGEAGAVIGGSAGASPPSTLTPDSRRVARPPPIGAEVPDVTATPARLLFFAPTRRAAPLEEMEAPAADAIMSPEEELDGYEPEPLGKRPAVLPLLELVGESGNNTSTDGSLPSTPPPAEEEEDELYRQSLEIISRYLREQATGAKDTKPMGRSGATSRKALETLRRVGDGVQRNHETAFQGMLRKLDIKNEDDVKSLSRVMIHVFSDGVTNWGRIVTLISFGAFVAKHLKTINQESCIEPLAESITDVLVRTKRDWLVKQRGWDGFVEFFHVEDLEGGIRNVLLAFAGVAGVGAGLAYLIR
In short: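 MBP-MCL-1 (1 nM final) was preincubated 10 min at 22 °C with compounds (11 concentrations, 0.1 nM–20 μM, duplicates) in Tris pH 7 buffer with NaCl, KF, Tween-20, DTT and BGG. After 1 h at 22 °C in the dark plus overnight at 4 °C, anti-MBP Eu-cryptate/streptavidin-XL665 TR-FRET was read; IC50 came from a 4-parameter fit.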

SUDHL10 [1] = assay: Anti-proliferative effect (CellTiter-Glo, 72 h), SUDHL10; assay type: cell-based; conditions: Homo sapiens, SU-DHL10, 72 h, SUDHL10 cells, antiproliferation, median, read-out: Antiproli SUDHL10 [M] (median)
In short: as §1

SUDHL5 [2] = assay: Anti-proliferative effect (CellTiter-Glo, 72 h), SUDHL5; assay type: cell-based; conditions: Homo sapiens, SU-DHL-5, 72 h, SUDHL5 cells, antiproliferation, median, read-out: Antiproli SUDHL5 [M] (median)
In short: as §1

SUDHL10 [3] = assay: Induction of cytotoxicity (CellTiter-Glo, 5 h), SUDHL10
SUDHL5 [4] = assay: Induction of cytotoxicity (CellTiter-Glo, 5 h), SUDHL5; conditions: Homo sapiens, SU-DHL-5, 5 h
SUDHL10 [5] = assay: Induction of caspase-3/7 activity (Caspase-Glo 3/7), SUDHL10; assay type: cell-based; conditions: caspase-3/7 induction, SUDHL10 cells, 3 h treatment, median
In short: (§2)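 Caspase-Glo 3/7 luminescence measured after 3 h compound exposure at 37 °C in SUDHL10 and SUDHL5 cells. EC50 values come from background-corrected signals, with curve bottom set to 1 and plateau set to maximal induction by the reference compound.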

SUDHL5 [6] = assay: Induction of caspase-3/7 activity (Caspase-Glo 3/7), SUDHL5; assay type: cell-based; conditions: Homo sapiens, SU-DHL-5, 3 h, caspase-3/7 induction, SUDHL5 cells, 3 h treatment; median
In short: as §2

[7] = Homo sapiens, SU-DHL10, 5 h, read-out: Cytotox SUDHL10 [M] (median), SUDHL10 cells, cytotoxicity induction, CellTiter-Glo, 5 h incubation, median
[8] = read-out: Cytotox SUDHL5 [M] (median), SUDHL5 cells, cytotoxicity induction, CellTiter-Glo, 5 h incubation, median
[9] = Homo sapiens, SU-DHL10, 5 h, read-out: Cytotox SUDHL10 [M] (median), SUDHL10 cells, cytotoxicity induction, CellTiter-Glo, 5 h, median
[10] = read-out: Cytotox SUDHL5 [M] (median), SUDHL5 cells, cytotoxicity induction, CellTiter-Glo, 5 h, median

| SMILES | IC50 (A2780) | IC50 (MCL-1) | IC50 (SUDHL10 [1]; 72 h incubation) | IC50 (SUDHL5 [2]; 72 h incubation) | EC50 (SUDHL10 [5]; Homo sapiens, SU-DHL10, 3 h) | EC50 (SUDHL5 [6]) | IC50 (SUDHL10 [1]; 72 h) | IC50 (SUDHL5 [2]; 72 h) | EC50 (SUDHL10 [5]) | IC50 (SUDHL10 [3]; [7]) | IC50 (SUDHL5 [4]; [8]) | IC50 (SUDHL10 [3]; [9]) | IC50 (SUDHL5 [4]; [10]) | IC50 (SUDHL10 [3]; read-out: Cytotox SUDHL10 [M] (median), SUDHL10 cells, cytotoxicity induction, CellTiter-Glo, 5 h, median) |
| --- | --- | --- | --- | --- | --- | --- | --- | --- | --- | --- | --- | --- | --- | --- |
| CCc1nn(C)c2c1-c1c(C)ccc3c(CCCOc4cccc5cc(F)ccc45)c(C(=O)O)n(c13)CCCCOC2 (racemic) [Example 266, (rac)-3-ethyl-7-{3-[(6-fluoronaphthalen-1-yl)oxy]propyl}1,4-dimethyl-1,10,11,12,13,15-hexahydropyrazolo[4′3′:9,10][1,6]oxazacycloundecino[8,7,6-hi]indole-8-carboxylic Acid] | 2.83e-05 M | 0.00259 µM | 2.83e-06 M | 9.96e-07 M | 4.47 µM | 1.79 µM | – | – | – | 4.99e-06 M | 1.76e-06 M | – | – | – |
| CCc1nn(C)c2c1-c1c(C)ccc3c(CCCOc4cc(C)c(Cl)c(C)c4)c(C(=O)O)n(c13)CCCCOC2 (racemic) [Example 269, (rac)-1(3-(4-chloro-3,5-dimethylphenoxy)propyl)-12-ethyl-10,13-dimethyl-4,5,6,7,9,10-hexahydropyrazolo[4′,3′:9,10][1]oxa[6]azacycloundecino[8,7,6-hi]indole-2-carboxylic Acid] | 2.93e-05 M | 0.00774 µM | 7.27e-06 M | 2.26e-06 M | 13.2 µM | 4.83 µM | – | – | – | 1.47e-05 M | 4.98e-06 M | – | – | – |
| CCc1nn(C)c2c1-c1c(C)ccc3c(CCCOc4cccc5c4CCCC5)c(C(=O)O)n(c13)CCCCOC2 (racemic) [Example 270, (rac)-12-ethyl-10,13-dimethyl-1-(3-((5,6,7,8-tetrahydronaphthalen-1-yl)oxy)propyl)-4,5,6,7,9,10-hexahydropyrazolo[4′,3′:9,10][1]oxa[6]azacycloundecino[8,7,6-hi]indole-2-carboxylic Acid] | > 3.3e-05 M | 0.00578 µM | 1.2e-05 M | 5.37e-06 M | 19.3 µM | 6.18 µM | – | – | – | 2.19e-05 M | 5.39e-06 M | – | – | – |
| CN1CCCn2c(C(=O)O)c(CCCOc3cccc4ccccc34)c3cccc(c32)-c2c(nn(C)c2C(F)(F)F)C1 (racemic) [Example 324, (rac)-7,10-dimethyl-1-[3-(naphthalen-1-yloxy)propyl]-11-(trifluoromethyl)-4,5,6,7,8,10-hexahydropyrazolo[3′,4′:7,8][1,5]diazecino[9,10,1-hi]indole-2-carboxylic Acid] | 2.46e-05 M | 0.027 µM | – | – | 32.1 µM | > 33 µM | 1.62e-05 M | 1.59e-05 M | > 33 µM | – | – | 2.68e-05 M | 2.92e-05 M | > 3.3e-05 M |
| Cn1nc(CN2CCCCC2)c2c1COCCCCn1c(C(=O)O)c(CCCOc3cccc4ccccc34)c3cccc-2c31 (racemic) [Example 332, (rac)-1-methyl-7-[3-(naphthalen-1-yloxy)propyl]-3-(piperidin-1-ylmethyl)-1,10,11,12,13,15-hexahydropyrazolo[4′,3′:9,10][1,6]oxazacycloundecino[8,7,6-hi]indole-8-carboxylic Acid] | > 3.3e-05 M | 0.203 µM | – | – | > 33 µM | 18.9 µM | 2.02e-05 M | 9.13e-06 M | – | – | – | > 3.3e-05 M | 1.94e-05 M | – |

The next lines start with results.

| IC50 (A2780) | IC50 (MCL-1) | IC50 (SUDHL10 [1]; 72 h incubation) | IC50 (SUDHL5 [2]; 72 h incubation) | EC50 (SUDHL10 [5]; Homo sapiens, SU-DHL10, 3 h) | EC50 (SUDHL5 [6]) | IC50 (SUDHL10 [1]; 72 h) | IC50 (SUDHL5 [2]; 72 h) | EC50 (SUDHL10 [5]) | SMILES | IC50 (SUDHL10 [3]; [7]) | IC50 (SUDHL5 [4]; [8]) | IC50 (SUDHL10 [3]; [9]) | IC50 (SUDHL5 [4]; [10]) | IC50 (SUDHL10 [3]; read-out: Cytotox SUDHL10 [M] (median), SUDHL10 cells, cytotoxicity induction, CellTiter-Glo, 5 h, median) |
| --- | --- | --- | --- | --- | --- | --- | --- | --- | --- | --- | --- | --- | --- | --- |
| 1.26e-05 M | 0.0371 µM | – | – | 30.7 µM | 18.4 µM | 5.93e-06 M | 1.21e-05 M | – | COc1ccc(OCc2nn(C)c3c2-c2cccc4c(CCCOc5cccc6ccccc56)c(C(=O)O)n(c24)CCCCOC3)cc1 (racemic) [Example 319, (rac)-3-[(4-methoxyphenoxy)methyl]-1-methyl-7-[3-(naphthalen-1-yloxy)propyl]-1,10,11,12,13,15-hexahydropyrazolo[4′,3′:9,10][1,6]oxazacycloundecino[8,7,6-hi]indole-8-carboxylic Acid] | – | – | 2.83e-05 M | 2.11e-05 M | – |
| > 3.3e-05 M | 0.0802 µM | – | – | > 33 µM | > 33 µM | 1.45e-05 M | 2.13e-05 M | – | Cn1nc(CN2CCCCC2=O)c2c1COCCCCn1c(C(=O)O)c(CCCOc3cccc4ccccc34)c3cccc-2c31 (racemic) [Example 325, (rac)-1-methyl-7-[3-(naphthalen-1-yloxy)propyl]-3-[(2-oxopiperidin-1-yl)methyl]-1,10,11,12,13,15-hexahydropyrazolo[4′,3′:9,10][1,6]oxazacycloundecino[8,7,6-hi]indole-8-carboxylic Acid] | – | – | > 3.3e-05 M | > 3.3e-05 M | – |
| > 3.3e-05 M | 0.0467 µM | – | – | > 33 µM | > 33 µM | 1.9e-05 M | 1.87e-05 M | – | Cn1nc(CN2CCCC2=O)c2c1COCCCCn1c(C(=O)O)c(CCCOc3cccc4ccccc34)c3cccc-2c31 (racemic) [Example 328, (rac)-1-methyl-7-[3-(naphthalen-1-yloxy)propyl]-3-[(2-oxopyrrolidin-1-yl)methyl]-1,10,11,12,13,15-hexahydropyrazolo[4′,3′:9,10][1,6]oxazacycloundecino[8,7,6-hi]indole-8-carboxylic Acid] | – | – | > 3.3e-05 M | > 3.3e-05 M | – |
| > 3.3e-05 M | 0.185 µM | – | – | > 33 µM | > 33 µM | > 3.3e-05 M | > 3.3e-05 M | – | CN(C)Cc1nn(C)c2c1-c1cccc3c(CCCOc4cccc5ccccc45)c(C(=O)O)n(c13)CCCCOC2 (racemic) [Example 331, (rac)-3-[(dimethylamino)methyl]-1-methyl-7-[3-(naphthalen-1-yloxy)propyl]-1,10,11,12,13,15-hexahydropyrazolo[4′,3′:9,10][1,6]oxazacycloundecino[8,7,6-hi]indole-8-carboxylic Acid] | – | – | > 3.3e-05 M | > 3.3e-05 M | – |
| 2.35e-05 M | 0.18 µM | – | – | > 33 µM | 27.2 µM | 2.24e-05 M | 1.93e-05 M | – | Cn1nc(CN2CCCC2)c2c1COCCCCn1c(C(=O)O)c(CCCOc3cccc4ccccc34)c3cccc-2c31 (racemic) [Example 335, (rac)-1-methyl-7-[3-(naphthalen-1-yloxy)propyl]-3-(pyrrolidin-1-ylmethyl)-1,10,11,12,13,15-hexahydropyrazolo[4′3′:9,10][1,6]oxazacycloundecino[8,7,6-hi]indole-8-carboxylic Acid] | – | – | 2.77e-05 M | 2.57e-05 M | – |
| > 3.3e-05 M | 0.048 µM | – | – | > 33 µM | > 33 µM | > 3.3e-05 M | > 3.3e-05 M | – | Cn1nc(CN)c2c1COCCCCn1c(C(=O)O)c(CCCOc3cccc4ccccc34)c3cccc-2c31 (racemic) [Example 338, (rac)-3-(aminomethyl)-1-methyl-7-[3-(naphthalen-1-yloxy)propyl]-1,10,11,12,13,15-hexahydropyrazolo[4′,3′:9,10][1,6]oxazacycloundecino[8,7,6-hi]indole-8-carboxylic Acid] | – | – | > 3.3e-05 M | > 3.3e-05 M | – |
| > 3.3e-05 M | 0.032 µM | – | – | > 33 µM | > 33 µM | > 3.3e-05 M | > 3.3e-05 M | – | CC(=O)NCc1nn(C)c2c1-c1cccc3c(CCCOc4cccc5ccccc45)c(C(=O)O)n(c13)CCCCOC2 (racemic) [Example 339, (rac)-3-[(acetylamino)methyl]-1-methyl-7-[3-(naphthalen-1-yloxy)propyl]-1,10,11,12,13,15-hexahydropyrazolo[4′,3′:9,10][1,6]oxazacycloundecino[8,7,6-hi]indole-8-carboxylic Acid] | – | – | > 3.3e-05 M | > 3.3e-05 M | – |
